Measurements: patent publication US12551492B2, “Enthesis healing” (UNIVERSITY OF UTAH RESEARCH FOUNDATION, priority 2020, dated 2026)
Like-named read-outs stand apart in the source and are kept apart here.

What was measured:
[1] = cited from earlier work
[2] = test system: rotator cuff enthesis; assay: Mouse rotator cuff repair, histological analyses four weeks post-operatively; type: in vivo, male wild type mice
Text: (§1) Twenty-nine male wild type mice were randomly divided into three study groups. Group 1 (Control) consisted of unoperated mice which provided intact “control” shoulders with normal rotator cuff tendons. Group 2 (Repair Only) was a surgical repair group injected with the drug carrier used in Group 3. Group 3 (Repair+DES) was a surgical repair group injected with diethylstilbestrol (DES). Twenty-three mice were sacrificed four weeks post-operatively and used for histological analyses including scanning electron & light microscopy. The six remaining mice (n=3 Repair Only and n=3 Repair+DES) were sacrificed at 2 weeks for RNA expression analysis of various chondrogenic, angiogenic, osteogenic, tendon maturation/modulation, and hormonal genes.

[3] = test system: chondrogenic, angiogenic, osteogenic, tendon maturation/modulation, and hormonal genes; assay: Mouse rotator cuff repair, RNA expression analysis at 2 weeks; type: in vivo, male wild type mice; details: Repair+DES vs Repair Only, p<0.02
Text: as §1

[4] = Multi-payor national database study: infection after rotator cuff repair; type: in vivo; details: patients receiving testosterone replacement vs non-testosterone replacement patients, adjusted
Procedure: A study within a multi-payor large national database with over 160 million individuals was conducted including 292,666 patients who underwent RCR and an equal number of controls matched for age, sex, year of surgery, and years within the database.
The higher testosterone levels found in males as compared to females increase the presence of Cutibacterium acnes on the skin.

[5] = test system: rotator cuff repair; details: mouse and rat models; cited from earlier work
[6] = Table 1, available forms of estrogen
[7] = Table 2, available forms of testosterone

| Molecule | Half-life [1, 6] | Half-life [1, 7] [days] | other results |
| --- | --- | --- | --- |
| CCN(CC)CCOc1ccc(C(=C(Cl)c2ccccc2)c2ccccc2)cc1 [Clomiphene (SERM), Clomiphene] | 5 days |  |  |
| CC/C(=C(/CC)c1ccc(O)cc1)c1ccc(O)cc1 [DES, diethylstilbestrol] |  |  | areas of calcified and uncalcified fibrocartilage ([2]; Repair Only vs Control and Repair+DES, p<0.03): significantly greater in the Repair Only group; bone formation within the humeral head ([2]; Repair+DES vs Repair Only and Control (intact tendon), p<0.001): increase of bone formation; osteogenic, angiogenic, and tendon modulation gene expression [3]: further increased |
| C[C@](O)(COc1ccc(C#N)cc1)C(=O)Nc1ccc(C#N)c(C(F)(F)F)c1 [Enobosarm] |  | 0.0694 |  |
| C[C@]12CC[C@@H]3c4ccc(OC(=O)c5ccccc5)cc4CC[C@H]3[C@@H]1CC[C@@H]2O [Estradiol benzoate] | 2 to 5 days |  |  |
| C[C@]12CC[C@@H]3c4ccc(O)cc4CC[C@H]3[C@@H]1CC[C@@H]2OC(=O)CCC1CCCC1 [Estradiol cypionate] | 8 to 10 days |  |  |
| CCC(=O)Oc1ccc2c(c1)CC[C@@H]1[C@@H]2CC[C@]2(C)[C@@H](OC(=O)CC)CC[C@@H]12 [Estradiol dipropionate] | >5 days |  |  |
| CCCCCCC(=O)O[C@H]1CC[C@H]2[C@@H]3CCc4cc(O)ccc4[C@H]3CC[C@]12C [Estradiol enanthate] | 5 to 8 days |  |  |
| CCCCCCCCCCC(=O)O[C@H]1CC[C@H]2[C@@H]3CCc4cc(O)ccc4[C@H]3CC[C@]12C [Estradiol undecylate] | 1-2 mon |  |  |
| CCCCC(=O)O[C@H]1CC[C@H]2[C@@H]3CCc4cc(O)ccc4[C@H]3CC[C@]12C [Estradiol valerate] | 4 to 5 days |  |  |
| N#Cc1ccc(N2CCC[C@@H]2[C@@H](O)C(F)(F)F)cc1C(F)(F)F [Ligandrol] |  | 1 to 1.5 |  |
| CC/C(=C(\c1ccccc1)c1ccc(OCCN(C)C)cc1)c1ccccc1 [Tamoxifen (SERM), Tamoxifen] | 5 to 7 days |  |  |
| C[C@]12CC[C@H]3[C@@H](CCC4=CC(=O)CC[C@@]43C)[C@@H]1CC[C@@H]2OC(=O)CCC1CCCC1 [Testosterone cypionate] |  | 8 |  |
| CCCCCCC(=O)O[C@H]1CC[C@H]2[C@@H]3CCC4=CC(=O)CC[C@]4(C)[C@H]3CC[C@]12C [Testosterone enanthate] |  | 4.5 |  |
| CCC(=O)O[C@H]1CC[C@H]2[C@@H]3CCC4=CC(=O)CC[C@]4(C)[C@H]3CC[C@]12C [Testosterone propionate] |  | 2 |  |
| CCCCCCCCCCC(=O)O[C@H]1CC[C@H]2[C@@H]3CCC4=CC(=O)CC[C@]4(C)[C@H]3CC[C@]12C [Testosterone undecanoate (PO), Testosterone undecanoate] |  | 0.0694 | Half-life ([1]; Table 2, available forms of testosterone, listed as Testosterone undecanoate (IM)): 34 days |
| C[C@]12CC[C@H]3[C@@H](CCC4=CC(=O)CC[C@@]43C)[C@@H]1CC[C@@H]2O [testosterone] |  |  | increase in risk of having an infection after an RCR [4]: 75% |
| FGF-2: fibroblast growth factor 2 |  |  | histologic or biomechanical characteristics after rotator cuff repair [5]: positively influence histologic or biomechanical characteristics |
| TGF-beta1: transforming growth factor beta1 |  |  | histologic or biomechanical characteristics after rotator cuff repair [5]: positively influence histologic or biomechanical characteristics |
| PDGF-BB: platelet derived growth factor-BB (protein, UniProt P01127 82-190, looked up) Platelet-derived growth …: SLGSLTIAEPAMIAECKTRTEVFEISRRLIDRTNANFLVWPPCVEVQRCSGCCNNRNVQCRPTQVQLRPVQVRKIEIVRKKPIFKKATVTLEDHLACKCETVAAARPVT |  |  | histologic or biomechanical characteristics after rotator cuff repair [5]: positively influence histologic or biomechanical characteristics |
